Biological target: topoisomerase II
Test: topoisomerase II activity inhibition assay (isoform not given)
Assay type: biochemical

CC[C@@]1(O)C(=O)OCc2c1cc1n(c2=O)Cc2cc3ccccc3nc2-1 [camptothecin]
IC50: 0.52 nM

Reference: PMC10768243 (Microbial Cell Factories, 2024)
